Experimental data as given in article PMC9767416, “Discovery of small molecule mechanistic target of rapamycin inhibitors as anti-aging and anti-cancer therapeutics” (Frontiers in Aging Neuroscience, 2022).
Several values for one entry are separate records, joined by “and”; a condition that tells them apart may be missing. Equal entries are not always repeated.

Tests used:
[1] = test system: temozolomide (TMZ)-induced senescent U87 cells; experiment: Crystal violet and resazurin assays in TMZ-induced senescent U87; assay type: cell-based, human; conditions: 0–100 μM, 24 h
Procedure: To obtain ionizing radiation (IR)-induced senescent cells, proliferating RPE-1 cells were exposed to a single dose of X-rays (20 Gy) using Pantak HF160 (Gulmay, Surrey, UK) X-ray instrument equipped with Pantak Seifert HF320 generator, MXR-161 X-ray tube (Comet AG, Flamatt, Switzerland), and an aluminum filter using current 1–10 mA. After irradiation, the cells were cultured for an additional 7 days until the development of the senescent phenotype ([Salovska et al., 2022]). To induce docetaxel-induced senescence (DIS), BJ cells were exposed to 5 nM docetaxel for 7 days, as described previously ([Sapega et al., 2018]). […]
For the crystal violet assay, the cells were washed twice with 150 μL PBS and stained with 30 μL 0.5% (w/v) crystal violet in 20% methanol for 15 mins. […] The absorbance was read at 595 nm using a microplate reader (Envision, PerkinElmer, Waltham, MA, USA). The absorbance of crystal violet in treated cells was expressed as a percentage of absorbance in untreated cells. Each condition was measured at least in triplicate.
For the resazurin assay, 200 μL of the culture medium of each well was exchanged for 100 μL of resazurin (stock solution 30 mg/mL; Sigma, St. Louis, MO, USA) diluted 10 times in the culture medium, and the cells were incubated at 37°C for 1–3 h. Reading of fluorescence was done using a microplate reader (PerkinElmer, Waltham, MA, USA). […]

[2] = test system: IR-induced senescent RPE-1 cells; experiment: Crystal violet and resazurin assays in IR-induced senescent RPE-1; assay type: cell-based, human
Procedure: To obtain ionizing radiation (IR)-induced senescent cells, proliferating RPE-1 cells were exposed to a single dose of X-rays (20 Gy) using Pantak HF160 (Gulmay, Surrey, UK) X-ray instrument equipped with Pantak Seifert HF320 generator, MXR-161 X-ray tube (Comet AG, Flamatt, Switzerland), and an aluminum filter using current 1–10 mA. After irradiation, the cells were cultured for an additional 7 days until the development of the senescent phenotype ([Salovska et al., 2022]). To induce docetaxel-induced senescence (DIS), BJ cells were exposed to 5 nM docetaxel for 7 days, as described previously ([Sapega et al., 2018]). To prepare temozolomide (TMZ)-induced senescence, U87 cells were exposed to 100 μM TMZ for 14 days.
(§1) Twenty-four hours before treatment, cells were plated in 96-well plates at densities of 2,850 cells per well for senescent RPE-1 (IR-RPE-1), 3,350 cells per well for proliferating RPE-1 and senescent BJ (DIS-BJ), and 5,000 cells per well for U373, T98, A172, U87, TMZ-U87, and proliferating BJ cells.
(§2) For the crystal violet assay, the cells were washed twice with 150 μL PBS and stained with 30 μL 0.5% (w/v) crystal violet in 20% methanol for 15 mins. Next, the plates were washed five times with ddH2O and left to dry overnight. Crystal violet was solubilized with 75 μL 0.2% Triton X-100 (Sigma) in PBS for 15 mins. The absorbance was read at 595 nm using a microplate reader (Envision, PerkinElmer, Waltham, MA, USA). The absorbance of crystal violet in treated cells was expressed as a percentage of absorbance in untreated cells. Each condition was measured at least in triplicate.
For the resazurin assay, 200 μL of the culture medium of each well was exchanged for 100 μL of resazurin (stock solution 30 mg/mL; Sigma, St. Louis, MO, USA) diluted 10 times in the culture medium, and the cells were incubated at 37°C for 1–3 h. Reading of fluorescence was done using a microplate reader (PerkinElmer, Waltham, MA, USA). Absolute values of fluorescence were related to the values of untreated cells. Each condition was measured at least in triplicate. […]

U87 cells = experiment: Time-lapse microscopy with annexin V staining of proliferating U87; assay type: cell-based, human
Procedure: (§3) For auto-monitoring of cells, Incucyte SX1 Live-Cell Analysis System (Sartorius, Göttingen, Germany), located in an incubator maintained at 37°C under a 5% CO2 atmosphere and 95% humidity, was utilized. The images (1,408 × 1,040 pixels at 1.24 microns/pixel) were acquired using a 10× objective lens in phase contrast, red fluorescence (excitation: 585 ± 20 nm, emission: 635 [625, 705] nm, acquisition time: 100 ms) channels every 60 min during 72 h. The first image was acquired 30 min after adding compounds. The images were processed to measure cell confluence using Incucyte software (version 2022A). Annexin V – Dy647, Apronex (diluted 1:1,000) was used for apoptotic cell staining.

BJ, RPE-1 and U373 cells = experiment: Crystal violet and resazurin proliferation screen in proliferating cells; assay type: cell-based, human; conditions: RPE-1, U373, 0, 10, 50, 80, 100 μM, 24 h
Procedure: All cell lines used in the study were obtained from the American Type Culture Collection (ATCC, Manassas, VA, USA). Human telomerase-immortalized retinal pigment epithelial cells RPE-1, glioblastoma U-87 MG, glioblastoma U373MG, glioblastoma T98G, glioblastoma A-172, breast adenocarcinoma MDA-MB-231, prostate carcinoma DU-145, and non-small cell lung cancer NCI-H1299 cell lines were cultured in Dulbecco’s modified Eagle’s medium (DMEM, Thermo Fisher Scientific, Waltham, MA, USA) with high glucose (4.5 g/L). Primary human skin BJ fibroblasts were cultured in Dulbecco’s modified Eagle’s medium (DMEM, Thermo Fisher Scientific, Waltham, MA, USA) with low glucose (1 g/L). Both cell culture media were supplemented with 10% fetal bovine serum (FBS, Gibco/Thermo Fisher Scientific) and non-essential amino acids (NEAA), 100 units/mL of penicillin, and 100 μg/mL of streptomycin (Sigma-Aldrich). Cells were kept at 37°C under a 5% CO2 atmosphere and 95% humidity.
as §1, §2
(§4) For the resazurin assay, 200 μL of the culture medium of each well was exchanged for 100 μL of resazurin (stock solution 30 mg/mL; Sigma, St. Louis, MO, USA) diluted 10 times in the culture medium, and the cells were incubated at 37°C for 1–3 h. Reading of fluorescence was done using a microplate reader (PerkinElmer, Waltham, MA, USA). Absolute values of fluorescence were related to the values of untreated cells. Each condition was measured at least in triplicate.

RPE-1 cells = experiment: Time-lapse microscopy (Incucyte) of proliferating RPE-1; assay type: cell-based, human; conditions: 0, 10, 50, 80, 100 μM, 72 h
Procedure: as §3

mTOR kinase = molecular target: T1, mTOR kinase (Homo sapiens, UniProt P42345); experiment: In vitro mTOR kinase enzyme assay (Transcreener ADP2 FI); assay type: biochemical
T1 construct: purchased Invitrogen
Procedure: The mTOR enzyme assay was used to determine the mTOR kinase activity of compound 3. Enzymatic reaction mixture was prepared as follows: mTOR enzyme (10 μg/mL, Invitrogen), ATP (10 μM), p70S6K peptide (10 μg/mL, SignalChem), and kinase buffer (50 mM HEPES, pH 7.5, 1 mM EGTA, 3 mM MnCl2, 10 mM MgCl2, 2 mM DTT, and 0.01% Tween-20). The reaction was performed in black half-area 96-wells at room temperature for 1 h, then stopped by adding ADP detection buffer (Transcreener ADP^2 FI Assay, BellBrook labs) and incubated at room temperature for 1 h. Compound concentration was 10, 20, 40, 80, and 100 μM. The final DMSO concentration was 1%. PHERAstar microplate reader was used for measuring the fluorescence intensity (excitation 575 nm, emission 620 nm).

[3] = test system: glioblastoma T98, A172 and U87 cells; experiment: Crystal violet and resazurin assays in further glioblastoma lines; assay type: cell-based, human; conditions: 0–100 μM, 24 h
Procedure: as §1, §2, §4

Question: How did the “effect on the readout of crystal violet and resazurin assays” value [1] turn out when `Nc1ccc(C(=O)Nc2cccc(-c3c[nH]c4ncccc34)c2)cc1O` [Compound 3, N-(3-(1H-pyrrolo[2,3-b]pyridin-3-yl)phenyl)-4-amino-3-hydroxybenzamide] was run?
Answer: The value was “similarly to proliferating U87 cells”.

Question: And the “selectivity for senescent versus proliferating cells” value ([2]; IR-RPE-1 vs proliferating RPE-1, crystal violet and resazurin)?
Answer: The value was “non-selective manner”.

Question: And the “sensitivity of senescent cells (crystal violet and resazurin)” value ([2]; IR-induced senescent RPE-1, 0–100 μM, 24 h)?
Answer: The value was “significantly sensitive”.

Question: And the “cell phenotype in time-lapse microscopy” value (U87 cells; proliferating U87, 100 μM, 72 h)?
Answer: Its value is “rapid loss of cell spreading with a lack of mitotic activity and progressively occurring cell death”.

Question: And the “induction of apoptosis (annexin V staining)” value (U87 cells; time-lapse microscopy 72 h, 0–100 μM, Figure 5G)?
Answer: The value was “confirmed”.

Question: And the “effect on the readout of crystal violet and resazurin assays” value (BJ, RPE-1 and U373 cells)?
Answer: Its value is “significant suppressive effect”.

Question: And the “effect on cell proliferation (cell confluence, time-lapse)” value (RPE-1 cells)?
Answer: Its value is “showed the effect on RPE-1 cell proliferation”.

Question: What about the IC50 (mTOR kinase; ATP 10 μM, p70S6K peptide, 1 h) of the same compound?
Answer: Its IC50 is ~70 µM and 70 µM.

Question: And the “inhibition of mTOR kinase activity” value (mTOR kinase; at 100 μM)?
Answer: The value was “complete inhibition”.

Question: What about the “concentration from which mTOR kinase activity is inhibited” value (mTOR kinase; tested at 10, 20, 40, 80, 100 μM) of the same compound?
Answer: Its value is 10 µM.

Question: What about the “effect in crystal violet and resazurin assays” value [3] of the same compound?
Answer: The value was “significantly affected”.
